Measured values: US11939314B2, “Quinolin-2-one derivatives” (MERCK PATENT GMBH, priority 2016, dated 2024)

Columns and labels:
c-Kit(V654A) = target: T1, c-Kit(V654A) (Homo sapiens, UniProt P10721, V654A); assay: c-Kit(V654A) assay; type: biochemical; conditions: recombinant human c-Kit aa 544-end, 200 μM ATP, 1.4E-06 means 1.4×10^−6, read-out: Inhibition (IC50) of c-KIT (V654A)
T1 construct: amino acids 544-end containing the V654A mutation; GST (N)
Summary of the method: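 Radiometric filter-binding read-out: substrate 33P incorporation counted by scintillation after P30 filtermat washes in 75 mM phosphoric acid and methanol. Enzyme: N-GST recombinant human c-Kit aa 544-end carrying V654A.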

PDGFRalpha(V561D) = target: T2, PDGFRalpha(V561D) (Homo sapiens, UniProt P16234, V561D); assay: PDGFRalpha(V561D) assay; type: biochemical; conditions: recombinant human PDGFRalpha aa 550-end, 200 μM ATP, 1.4E-06 means 1.4×10^−6, read-out: Inhibition (IC50) of PDGFRα (V561D)
T2 construct: recombinant human PDGFRalpha, amino acids 550end containing the V561 D mutation; 6His (N)
T2 sequence (P16234 550-1089 V561D): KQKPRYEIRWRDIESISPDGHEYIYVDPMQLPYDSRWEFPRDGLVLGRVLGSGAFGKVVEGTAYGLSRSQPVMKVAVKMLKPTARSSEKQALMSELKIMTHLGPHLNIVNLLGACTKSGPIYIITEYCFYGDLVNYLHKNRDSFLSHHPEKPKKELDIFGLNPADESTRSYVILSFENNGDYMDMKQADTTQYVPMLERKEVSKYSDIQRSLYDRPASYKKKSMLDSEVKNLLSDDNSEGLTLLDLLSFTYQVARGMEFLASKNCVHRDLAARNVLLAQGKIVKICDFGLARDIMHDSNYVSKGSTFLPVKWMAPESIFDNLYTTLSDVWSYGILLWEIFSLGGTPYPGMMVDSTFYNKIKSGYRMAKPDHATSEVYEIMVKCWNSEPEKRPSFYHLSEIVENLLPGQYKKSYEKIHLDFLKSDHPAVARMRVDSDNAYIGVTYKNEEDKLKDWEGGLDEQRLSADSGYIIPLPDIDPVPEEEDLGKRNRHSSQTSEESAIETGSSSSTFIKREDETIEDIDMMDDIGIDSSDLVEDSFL
Summary of the method: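 Radiometric filter-binding assay: substrate phosphorylation by recombinant N-His-tagged human PDGFRα 550-end V561D was quenched with 3% phosphoric acid after 40 min at room temperature, then counted.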

T1 sequence (P10721 544-976 V654A): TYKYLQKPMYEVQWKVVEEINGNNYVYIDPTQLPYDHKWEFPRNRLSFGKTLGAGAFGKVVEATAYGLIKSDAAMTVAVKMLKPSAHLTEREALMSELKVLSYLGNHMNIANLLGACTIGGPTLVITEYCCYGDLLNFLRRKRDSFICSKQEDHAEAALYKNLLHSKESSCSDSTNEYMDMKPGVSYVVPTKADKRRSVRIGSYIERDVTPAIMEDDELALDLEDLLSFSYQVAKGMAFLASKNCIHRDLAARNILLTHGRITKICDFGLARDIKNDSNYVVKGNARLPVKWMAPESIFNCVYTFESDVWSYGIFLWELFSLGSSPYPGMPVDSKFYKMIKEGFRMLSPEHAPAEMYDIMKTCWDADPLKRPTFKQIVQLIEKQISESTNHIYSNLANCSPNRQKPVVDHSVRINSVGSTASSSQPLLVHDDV

Compound	IC50 (c-Kit(V654A))	IC50 (PDGFRalpha(V561D))
O=C1OCCN1c1ccc(-n2cc(-c3cc4cc(F)ccc4[nH]c3=O)nn2)cc1 [A98, 6-fluoro-3-{1-[4-(2-oxo-oxazolidin-3-yl)-phenyl]-1H-[1,2,3]triazol-4-yl}-1H-quinolin-2-one]	180 nM	75 nM
CC(=O)N1CCN(CCOc2ccc(-n3cc(-c4cc5cc(F)c(F)cc5[nH]c4=O)nn3)cc2)CC1 [A101, 3-(1-{4-[2-(4-acetyl-piperazin-1-yl)-ethoxy]-phenyl}-1H-[1,2,3]triazol-4-yl)-6,7-difluoro-1H-quinolin-2-one]	33 nM	290 nM
O=C(c1ccc(-n2cc(-c3cc4cc(F)c(F)cc4[nH]c3=O)nn2)cc1)N1CCC(N2CCCC2)C1 (centres unmarked) [A104, 3-{1-[4-([1,3′]bipyrrolidinyl-1′-carbonyl)-phenyl]-1H-[1,2,3]triazol-4-yl}-6,7-difluoro-1H-quinolin-2-one]	24 nM	150 nM
O=C(c1ccc(-n2cc(-c3cc4c(F)cc(F)cc4[nH]c3=O)nn2)cc1)N1CCC(N2CCCC2)C1 (centres unmarked) [A105, 3-{1-[4-([1,3′]bipyrrolidinyl-1′-carbonyl)-phenyl]-1H-[1,2,3]triazol-4-yl}-5,7-difluoro-1H-quinolin-2-one]	9.7 nM	340 nM
O=C(c1cccc(-n2cc(-c3cc4cc(F)c(F)cc4[nH]c3=O)nn2)c1)N1CCC(N2CCCC2)C1 (centres unmarked) [A108, 3-{1-[3-([1,3′]bipyrrolidinyl-1′-carbonyl)-phenyl]-1H-[1,2,3]triazol-4-yl}-6,7-difluoro-1H-quinolin-2-one]	83 nM	81 nM

More lines, now with the values ahead:

IC50 (c-Kit(V654A))	IC50 (PDGFRalpha(V561D))	Compound
17 nM	10 nM	CN1CCN(C(=O)c2ccc(-n3cc(-c4cc5ccc(Cl)cc5[nH]c4=O)nn3)cc2)CC1=O [A97, 7-chloro-3-{1-[4-(4-methyl-3-oxo-piperazine-1-carbonyl)-phenyl]-1H-[1,2,3]triazol-4-yl}-1H-quinolin-2-one]
33 nM	76 nM	O=c1[nH]c2ccc(F)cc2cc1-c1cn(-c2ccc(N3CCCS3(=O)=O)cc2)nn1 [A99, 3-{1-[4-(1,1-dioxo-1|6-isothiazolidin-2-yl)-phenyl]-1H-[1,2,3]triazol-4-yl}-6-fluoro-1H-quinolin-2-one]
20 nM	63 nM	O=C(c1ccc(-n2cc(-c3cc4cc(F)ccc4[nH]c3=O)nn2)cc1)N1CCC(N2CCCC2)C1 (centres unmarked) [A100, 3-{1-[4-([1,3′]bipyrrolidinyl-1′-carbonyl)-phenyl]-1H-[1,2,3]triazol-4-yl}-6-fluoro-1H-quinolin-2-one]
18 nM	54 nM	CC(=O)N1CCN(CCOc2ccc(-n3cc(-c4cc5cc(F)ccc5[nH]c4=O)nn3)cc2)CC1 [A100a, 3-(1-{4-[2-(4-acetyl-piperazin-1-yl)-ethoxy]-phenyl}-1H-[1,2,3]triazol-4-yl)-6-fluoro-1H-quinolin-2-one]
11 nM	48 nM	CC(=O)OC1CCN(C(=O)c2ccc(-n3cc(-c4cc5cc(F)ccc5[nH]c4=O)nn3)cc2)CC1 [A102, acetic acid 1-{4-[4-(6-fluoro-2-oxo-1,2-dihydro-quinolin-3-yl)-[1,2,3]triazol-1-yl]-benzoyl}-piperidin-4-yl ester]
8.6 nM	35 nM	CC(=O)OC1CCCN(C(=O)c2ccc(-n3cc(-c4cc5cc(F)ccc5[nH]c4=O)nn3)cc2)C1 (centres unmarked) [A103, acetic acid 1-{4-[4-(6-fluoro-2-oxo-1,2-dihydro-quinolin-3-yl)-[1,2,3]triazol-1-yl]-benzoyl}-piperidin-3-yl ester]
9.1 nM	0.9 nM	COCC1CCN(C(=O)c2ccc(-n3cc(-c4cc5cc(F)ccc5[nH]c4=O)nn3)cc2)C1 (centres unmarked) [A106, 6-fluoro-3-{1-[4-(3-methoxymethyl-pyrrolidine-1-carbonyl)-phenyl]-1H-[1,2,3]triazol-4-yl}-1H-quinolin-2-one]
44 nM	23 nM	O=C(c1cccc(-n2cc(-c3cc4cc(F)ccc4[nH]c3=O)nn2)c1)N1CCC(N2CCCC2)C1 (centres unmarked) [A107, 3-{1-[3-([1,3′]bipyrrolidinyl-1′-carbonyl)-phenyl]-1H-[1,2,3]triazol-4-yl}-6-fluoro-1H-quinolin-2-one]
